According to patent publication US20250090540A1, “PI3K-ALPHA INHIBITORS AND METHODS OF USE THEREOF” (Relay Therapeutics, Inc., priority 2021, published 2025):
Read-outs that look alike come from different tables or passages of the source.

How the values were obtained:
H1047R PIK3CA enzyme = H1047R PIK3CA enzyme (Homo sapiens, UniProt P42336, H1047R); assay: ADP-Glo Biochemical PIK3CA Kinase Assay
cells = details: Homo sapiens, MCF-10A, read-out: MCF10A I50
[1] = ADP-Glo biochemical PIK3CA kinase assay

Sequence of H1047R PIK3CA enzyme (P42336 whole entry H1047R): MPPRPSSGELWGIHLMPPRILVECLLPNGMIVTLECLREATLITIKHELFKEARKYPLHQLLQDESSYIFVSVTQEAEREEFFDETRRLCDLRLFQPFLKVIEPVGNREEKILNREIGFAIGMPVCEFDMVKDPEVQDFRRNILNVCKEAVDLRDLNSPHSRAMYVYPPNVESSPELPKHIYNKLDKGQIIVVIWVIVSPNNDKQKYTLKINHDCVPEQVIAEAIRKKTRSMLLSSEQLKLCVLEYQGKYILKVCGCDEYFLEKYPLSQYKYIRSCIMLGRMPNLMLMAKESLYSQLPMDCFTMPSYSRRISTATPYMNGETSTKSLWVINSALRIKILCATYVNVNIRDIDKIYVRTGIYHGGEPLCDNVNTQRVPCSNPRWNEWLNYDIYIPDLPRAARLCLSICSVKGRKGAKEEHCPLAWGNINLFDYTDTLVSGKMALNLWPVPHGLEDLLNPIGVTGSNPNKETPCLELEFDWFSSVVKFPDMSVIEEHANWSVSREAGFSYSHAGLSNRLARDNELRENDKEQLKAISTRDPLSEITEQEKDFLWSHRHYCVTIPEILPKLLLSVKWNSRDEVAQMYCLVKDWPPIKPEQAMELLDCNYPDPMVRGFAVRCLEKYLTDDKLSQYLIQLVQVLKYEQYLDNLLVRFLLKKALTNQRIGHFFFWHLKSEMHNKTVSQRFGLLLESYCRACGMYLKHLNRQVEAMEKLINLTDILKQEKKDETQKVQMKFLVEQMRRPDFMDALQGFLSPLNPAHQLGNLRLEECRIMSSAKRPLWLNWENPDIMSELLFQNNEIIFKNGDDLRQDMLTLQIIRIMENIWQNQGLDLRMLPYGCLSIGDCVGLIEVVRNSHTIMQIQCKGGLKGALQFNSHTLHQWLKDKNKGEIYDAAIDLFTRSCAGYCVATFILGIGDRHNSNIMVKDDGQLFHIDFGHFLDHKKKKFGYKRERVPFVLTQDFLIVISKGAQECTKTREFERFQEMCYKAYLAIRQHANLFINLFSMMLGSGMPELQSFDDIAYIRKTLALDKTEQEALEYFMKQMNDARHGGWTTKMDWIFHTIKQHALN
Sequence of H1047R PIK3CA enzyme (P27986 whole entry partner): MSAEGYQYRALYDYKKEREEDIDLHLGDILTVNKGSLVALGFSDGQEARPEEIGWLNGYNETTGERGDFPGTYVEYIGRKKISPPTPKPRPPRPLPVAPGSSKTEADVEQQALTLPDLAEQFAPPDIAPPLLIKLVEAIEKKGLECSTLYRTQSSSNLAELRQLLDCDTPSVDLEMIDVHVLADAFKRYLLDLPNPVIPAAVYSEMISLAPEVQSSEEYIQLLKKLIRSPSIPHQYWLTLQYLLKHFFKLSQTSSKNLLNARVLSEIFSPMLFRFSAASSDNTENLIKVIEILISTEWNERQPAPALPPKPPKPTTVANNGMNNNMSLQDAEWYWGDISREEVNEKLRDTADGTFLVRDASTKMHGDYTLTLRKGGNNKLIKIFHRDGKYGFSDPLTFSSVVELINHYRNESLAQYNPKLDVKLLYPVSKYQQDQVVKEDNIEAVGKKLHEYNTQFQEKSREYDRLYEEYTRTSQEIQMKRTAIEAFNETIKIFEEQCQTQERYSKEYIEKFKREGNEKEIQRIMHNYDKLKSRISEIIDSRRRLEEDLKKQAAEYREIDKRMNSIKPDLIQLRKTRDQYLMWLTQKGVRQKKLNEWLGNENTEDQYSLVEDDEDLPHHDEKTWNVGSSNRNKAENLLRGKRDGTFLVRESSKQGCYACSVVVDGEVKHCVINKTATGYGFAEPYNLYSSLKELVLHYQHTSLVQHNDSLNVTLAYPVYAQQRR

SMILES | IC50 (H1047R PIK3CA enzyme) | IC50 (cells) | IC50 (H1047R PIK3CA enzyme; [1])
Cc1ccccc1Nc1ncc(C(=O)N[C@@H]2CC(=O)N(C)C2)cc1NC(=O)c1csc2ccccc12 (racemic) [I-326] | 0.1 to 0.5 µM | 5 to 10 µM | 
C[C@@H](NC(=O)c1cnc(N2CCOc3ccccc32)c(NC(=O)c2csc3ccccc23)c1)c1ccccn1 (racemic) [I-337] | 0.1 to 0.5 µM | 5 to 10 µM | 
O=C1C[C@@H](CNC(=O)c2cc(F)cc(C(F)(F)F)c2)[C@H](c2cc(F)ccc2Cl)N1 (racemic) [I-801, N-{[(2R,3S)-2-(2-chloro-5-fluorophenyl)-5-oxopyrrolidin-3-yl]methyl}-3-fluoro-5-(trifluoromethyl)benzamide] | 0.1 to 0.5 µM | 1 to 5 µM | 
Cc1ccccc1Nc1ncc(C(=O)N[C@@H]2CC(=O)N(C)C2)cc1NC(=O)c1csc2ccccc12 (single isomer, unassigned) [I-435] |  | 5 to 10 µM | ≤ 0.1 µM
Cc1ccccc1Nc1ncc(C(=O)N[C@H]2CCN(C)C2)cc1NC(=O)c1cc(F)cc(C(F)(F)F)c1 (stereo in doubt) [I-67] | 0.5 to 1 µM | 10 to 36 µM | 
C[C@@H](NC(=O)c1cnc(N2CCOc3ccccc32)c(NC(=O)c2csc3ccccc23)c1)c1cccnc1 (stereo in doubt) [I-257] | ≤ 0.1 µM | 5 to 10 µM | 
C[C@H](NC(=O)c1cnc(N2CCOc3ccccc32)c(NC(=O)c2csc3ccccc23)c1)c1cccnc1 (stereo in doubt) [I-258] | 0.1 to 0.5 µM | 10 to 36 µM | 
C[C@@H](NC(=O)c1cnc(N2CCOc3ccccc32)c(NC(=O)c2csc3ccccc23)c1)c1ccncc1 (stereo in doubt) [I-314] | 0.1 to 0.5 µM | 5 to 10 µM | 
C[C@H](NC(=O)c1cnc(N2CCOc3ccccc32)c(NC(=O)c2csc3ccccc23)c1)c1ccncc1 (stereo in doubt) [I-315] | 0.5 to 1 µM | 10 to 36 µM | 
CNC(=O)c1cnc(Nc2ccccc2C)c(NC(=O)c2cc(F)cc(C(F)(F)F)c2)c1 [I-1] | 0.5 to 1 µM | 5 to 10 µM | 
CNC(=O)c1cnc(Nc2ccccc2C)c(NC(=O)c2cc(Cl)cc(Cl)c2)c1 [I-6] | 0.5 to 1 µM | 5 to 10 µM | 
Cc1ccccc1Nc1ncc(-c2cncnc2)cc1NC(=O)c1cc(F)cc(C(F)(F)F)c1 [I-7] | 0.1 to 0.5 µM | 5 to 10 µM | 
CNC(=O)c1cnc(Nc2ccccc2C)c(NS(=O)(=O)c2ccc(F)cc2C)c1 [I-8] | 0.1 to 0.5 µM | 1 to 5 µM | 
Cc1ccccc1Nc1ncccc1NC(=O)c1cc(F)cc(C(F)(F)F)c1 [I-11] | 1 to 10 µM | 10 to 36 µM | 
Cc1ccccc1Nc1ncc(C2CC2)cc1NC(=O)c1cc(F)cc(C(F)(F)F)c1 [I-21] | 1 to 10 µM | 10 to 36 µM | 
CNC(=O)c1cnc(Nc2ccccc2C)c(NC(=O)C(O)c2cccc(F)c2)c1 (stereo not shown) [I-27] | 0.5 to 1 µM | 1 to 5 µM | 
Cc1ccccc1Nc1ncc(C(N)=O)cc1NC(=O)c1cc(F)cc(C(F)(F)F)c1 [I-28] | 0.5 to 1 µM | 5 to 10 µM | 
CNC(=O)c1cnc(Nc2ccccc2C)c(NC(=O)Cc2ccc(O)c(O)c2)c1 [I-30] | 0.5 to 1 µM | 5 to 10 µM | 
CNC(=O)c1cnc(Nc2ccc(C)cc2)c(NC(=O)c2cc(F)cc(C(F)(F)F)c2)c1 [I-36] | 0.5 to 1 µM | 10 to 36 µM | 
CNC(=O)c1cnc(Nc2ccccc2C)c(NC(=O)c2csc3ccccc23)c1 [I-41] | 0.1 to 0.5 µM | 10 to 36 µM | 
Cc1ccccc1Nc1ncc(C(C)(C)O)cc1NC(=O)c1cc(F)cc(C(F)(F)F)c1 [I-42] | 1 to 10 µM | 10 to 36 µM | 
Cc1ccccc1Nc1ncc(-c2cccc(S(N)(=O)=O)c2)cc1NC(=O)c1cc(F)cc(C(F)(F)F)c1 [I-45] | 0.1 to 0.5 µM | 1 to 5 µM | 

SMILES | IC50 (H1047R PIK3CA enzyme) | IC50 (cells) | IC50 (H1047R PIK3CA enzyme; [1])
Cc1ccccc1Nc1ncc(-c2ccc(C#N)cc2)cc1NC(=O)c1cc(F)cc(C(F)(F)F)c1 [I-46] | 0.1 to 0.5 µM | 1 to 5 µM | 
Cc1ccccc1Nc1ncc(C(=O)NC2CS(=O)(=O)C2)cc1NC(=O)c1cc(F)cc(C(F)(F)F)c1 [I-51] | ≤ 0.1 µM | < 1 µM | 
Cc1ccccc1Nc1ncc(C(=O)NCc2ccnn2C)cc1NC(=O)c1cc(F)cc(C(F)(F)F)c1 [I-52] | 0.1 to 0.5 µM | 1 to 5 µM | 
Cc1ccccc1Nc1ncc(C(=O)NCc2cnn(C)c2)cc1NC(=O)c1cc(F)cc(C(F)(F)F)c1 [I-53] | 0.1 to 0.5 µM | 5 to 10 µM | 
Cc1ccccc1Nc1ncc(NC(=O)OC(C)(C)C)cc1NC(=O)c1cc(F)cc(C(F)(F)F)c1 [I-54] | 1 to 10 µM | 10 to 36 µM | 
COc1ncc(-c2cnc(Nc3ccccc3C)c(NC(=O)c3cc(F)cc(C(F)(F)F)c3)c2)cn1 [I-57] | 0.5 to 1 µM | 1 to 5 µM | 
Cc1ccccc1Nc1ncc(Br)cc1NC(=O)c1cc(F)cc(C(F)(F)F)c1 [I-60] | 1 to 10 µM | 1 to 5 µM | 
Cc1ccccc1Nc1ncc(C(=O)NCc2nccs2)cc1NC(=O)c1cc(F)cc(C(F)(F)F)c1 [I-65] | 0.1 to 0.5 µM | 1 to 5 µM | 
Cc1ccccc1Nc1ncc(-c2cncc(C#N)c2)cc1NC(=O)c1cc(F)cc(C(F)(F)F)c1 [I-75] | 0.1 to 0.5 µM | 1 to 5 µM | 
Cc1ccccc1Nc1ncc(-c2ccc(C(N)=O)cc2)cc1NC(=O)c1cc(F)cc(C(F)(F)F)c1 [I-79] | 0.1 to 0.5 µM | 5 to 10 µM | 
Cc1ccccc1Nc1ncc(-c2ccc(O)cc2)cc1NC(=O)c1cc(F)cc(C(F)(F)F)c1 [I-82] | 0.5 to 1 µM | 10 to 36 µM | 
CNC(=O)c1ccc(-c2cnc(Nc3ccccc3C)c(NC(=O)c3cc(F)cc(C(F)(F)F)c3)c2)cc1 [I-84] | 1 to 10 µM | 5 to 10 µM | 
Cc1ccccc1Nc1ncc(-c2cnn(C)c2)cc1NC(=O)c1csc2ccccc12 [I-93] | 0.1 to 0.5 µM | 5 to 10 µM | 
Cc1ccccc1Nc1ncc(C(=O)NCc2ccnn2C)cc1NC(=O)c1csc2ccccc12 [I-135] | 0.1 to 0.5 µM | 1 to 5 µM | 
Cc1ccccc1Nc1ncc(C(=O)NC2CS(=O)(=O)C2)cc1NC(=O)c1csc2ccccc12 [I-136] | ≤ 0.1 µM | 1 to 5 µM | 
Nc1cnc(Nc2cc(F)ccc2Cl)c(NC(=O)c2cc(F)cc(C(F)(F)F)c2)c1 [I-780] |  |  | 10 to 100 µM
O=C(Nc1cnccc1-n1cccn1)c1cc(F)cc(C(F)(F)F)c1 [I-781] |  |  | 1 to 10 µM
CC(C)(O)c1cnc(Nc2cc(F)ccc2Cl)c(NC(=O)c2cc(F)cc(C(F)(F)F)c2)c1 [I-782] |  |  | 1 to 10 µM
Nc1cnc(Nc2cc(F)ccc2Cl)c(NC(=O)c2nsc3ccccc23)c1 [I-784] |  |  | 10 to 100 µM
O=C(NCc1ccccc1CN1CCCCC1)c1cc(F)cc(C(F)(F)F)c1 [I-785] |  |  | 10 to 100 µM
O=C(Nc1cc(C2CC2)nn1-c1ccccc1)c1cc(F)cc(C(F)(F)F)c1 [I-786] |  |  | 10 to 100 µM
Cc1cccc(-n2nc(C)cc2NC(=O)c2cc(F)cc(C(F)(F)F)c2)c1 [I-787] |  |  | 10 to 100 µM

SMILES | IC50 (H1047R PIK3CA enzyme) | IC50 (cells) | IC50 (H1047R PIK3CA enzyme; [1])
O=C(Nc1cc(C2CC2)nn1-c1ccccc1F)c1cc(F)cc(C(F)(F)F)c1 [I-788] |  |  | 10 to 100 µM
Cc1cc(NC(=O)c2cc(F)cc(C(F)(F)F)c2)n(-c2ccccc2F)n1 [I-789] |  |  | 1 to 10 µM
COc1nccc(NC(=O)c2cc(F)cc(C(F)(F)F)c2)c1Nc1ccccc1Cl [I-790] |  |  | 1 to 10 µM
Nc1cc(-c2ccc(F)cc2)nn1-c1nc2ccccc2[nH]1 [I-792] |  |  | 1 to 10 µM
N#Cc1cccc(NC(=O)c2cc(F)cc(C(F)(F)F)c2)c1Cc1ccccc1Cl [I-793] |  |  | 0.1 to 0.5 µM
O=C(Nc1ccn2cnnc2c1Nc1ccccc1Cl)c1cc(F)cc(C(F)(F)F)c1 [I-794] |  |  | 10 to 100 µM
CNC(=O)c1cnc(Nc2cc(F)ccc2Cl)c(NC(=O)N2CCc3ccccc32)c1 [I-797, N-{2-[(2-chloro-5-fluorophenyl)amino]-5-(methylcarbamoyl)pyridin-3-yl}-2,3-dihydro-1H-indole-1-carboxamide] |  |  | 10 to 100 µM
CNC(=O)c1cnc(Nc2ccccc2C)c(NC(=O)NC23C[C@H]4C[C@@H](C2)C[C@@H](C3)C4)c1 [I-798] |  |  | 1 to 10 µM
CNC(=O)c1cnc(Nc2cc(F)ccc2Cl)c(NC(=O)NC23C[C@H]4C[C@@H](C2)C[C@@H](C3)C4)c1 [I-799] | 10 to 100 µM |  | 
O=C(Nc1cc(-c2cnn(C(F)F)c2)cnc1Nc1cc(F)ccc1Cl)c1cc(F)cc(C(F)(F)F)c1 [I-803, N-(2-((2-chloro-5-fluorophenyl)amino)-5-(1-(difluoromethyl)-1H-pyrazol-4-yl)pyridin-3-yl)-3-fluoro-5-(trifluoromethyl)benzamide] | 1 to 10 µM |  | 
O=C(Nc1cc(-c2ccc3ncnn3c2)cnc1Nc1cc(F)ccc1Cl)c1cc(F)cc(C(F)(F)F)c1 [I-804] | 10 to 100 µM |  | 
CNC(=O)c1cnc(Nc2cc(F)ccc2Cl)c(Nc2nccc3c(Cl)cccc23)c1 [I-805, 6-((2-chloro-5-fluorophenyl)amino)-5-((5-chloroisoquinolin-1-yl)amino)-N-methylnicotinamide] | 10 to 100 µM |  | 
O=C(Nc1ccnn1-c1ccccc1)c1cc(F)cc(C(F)(F)F)c1 [I-806] | 10 to 100 µM |  | 
O=C(Nc1cccc(=O)n1Cc1ccccc1Cl)c1csc2ccccc12 [I-807] | 10 to 100 µM |  | 
CNC(=O)c1cnc(Nc2cc(F)ccc2Cl)c(NC(=O)c2cc(F)cc(C(F)(F)F)c2)c1 [I-810] | 10 to 100 µM |  | 
O=C(Nc1cc(-c2ccc3ncnn3c2)cnc1Nc1cc(CO)ccc1Cl)c1cc(F)cc(C(F)(F)F)c1 [I-811] | 10 to 100 µM |  | 
CNC(=O)c1cnc(NC(CO)CCO)c(NC(=O)c2cc(F)cc(C(F)(F)F)c2)c1 (stereo not shown) [I-814] | 10 to 100 µM |  | 
O=C1CCCC(c2nc3c(F)cc(C(F)(F)F)cc3[nH]2)N1Cc1cc(F)ccc1Cl (stereo not shown) [I-815] | 10 to 100 µM |  | 
O=C(Nc1cc(-c2ccc3ncnn3c2)cnc1NC(CO)CCO)c1cc(F)cc(C(F)(F)F)c1 (stereo not shown) [I-818] | 10 to 100 µM |  | 
O=C1NCc2ccccc2C1c1ccccc1-c1nc2c(F)cc(C(F)(F)F)cc2[nH]1 (stereo not shown) [I-820, 4-{2-[4-fluoro-6-(trifluoromethyl)-1H-1,3-benzodiazol-2-yl]phenyl}-1,2,3,4-tetrahydroisoquinolin-3-one] | 10 to 100 µM |  | 
CNC(=O)c1cnc(-n2c(=O)ccc3ccccc32)c(NC(=O)c2cc(F)cc(C(F)(F)F)c2)c1 [I-822] | 10 to 100 µM |  | 
CNC(=O)c1cc(NC(=O)c2cc(F)cc(C(F)(F)F)c2)c(Nc2cc(F)ccc2Cl)s1 [I-827, 5-((2-chloro-5-fluorophenyl)amino)-4-(3-fluoro-5-(trifluoromethyl)benzamido)-N-methylthiophene-2-carboxamide] | 0.5 to 1 µM |  | 
